Patent US9243020B2, “Selective glycosidase inhibitors and uses thereof” (priority 2010, dated 2016)

How the values were obtained:
[1] = Assay for determination of apparent permeability (Papp), bi-directional transport; assay type: in vitro ADME; details: pig, LLC-PK1; 1 μM test compound, t=3 h, average of A to B and B to A; read-out: Papp LLC-PK-1 cells
Protocol: Bi-directional transport was evaluated in LLC-PK1 cells in order to determine apparent permeability (Papp). LLC-PK1 cells can form a tight monolayer and therefore can be used to assess vectorial transport of compounds from basolateral to apical (B→A) and from apical to basolateral (A→B).
To determine Papp, LLC-PK1 cells were cultured in 96-well transwell culture plates (Millipore). Solutions containing the test compounds (1 μM) were prepared in Hank's Balanced Salt Solution with 10 mM HEPES. Substrate solution (150 μL) was added to either the apical (A) or the basolateral (B) compartment of the culture plate, and buffer (150 μL) was added to the compartment opposite to that containing the compound. At t=3 h, 50 μL samples were removed from both sides of monolayers dosed with test compound and placed in 96 well plates, scintillant (200 μL) or internal standard (100 μL labetolol 104) was added to the samples and concentration was determined by liquid scintillation counting in a MicroBeta Wallac Trilux scintillation counter (Perkin Elmer Life Sciences, Boston, Mass.) or by LCMS/MS (Applied Biosystems SCIEX API 5000 triple quadruple mass spectrometer). [^3H]Verapamil (1 μM) was used as the positive control. The experiment was performed in triplicate.
The apparent permeability, Papp, was calculated by the following formula for samples taken at t=3 h:
[formula] Where: Volume of Receptor Chamber was 0.15 mL; Area of membrane was 0.11 cm^2; the Initial Concentration is the sum of the concentration measured in the donor plus concentration measured in receiver compartments at t=3 h; Δ in Concentration is concentration in the receiver compartment at 3 h; and Δ in Time is the incubation time (3×60×60=10800 s). Papp was expressed as 10^−6 cm/s. The Papp (LLC-PK1 cells) are the average of the Papp for transport from A to B and Papp for transport from B to A at t=3 h: […]

human O-GlcNAcase = human O-GlcNAcase (Homo sapiens (Human), UniProt O60502); test: Assay for determination of Ki values for inhibition of O-GlcNAcase activity (fluorescence-based); assay type: biochemical; details: purified human O-GlcNAcase 0.7 nM, 2 mM 4-methylumbelliferyl N-acetyl-β-D-glucosaminide, pH 7.0, Cheng-Prusoff; read-out: Fluorescence-based hOGA Ki
Protocol: Experimental procedure for kinetic analyses: Enzymatic reactions were carried out in a reaction containing 50 mM NaH2PO4, 100 mM NaCl and 0.1% BSA (pH 7.0) using 2 mM 4-Methylumbelliferyl N-acetyl-β-D-glucosaminide dihydrate (Sigma M2133) dissolved in ddH2O, as a substrate. The amount of purified human O-GlcNAcase enzyme used in the reaction was 0.7 nM. Test compound of varying concentrations was added to the enzyme prior to initiation of the reaction. The reaction was performed at room temperature in a 96-well plate and was initiated with the addition of substrate. […] The slope of product production was determined for each concentration of compound tested and plotted, using standard curve fitting algorithms for sigmoidal dose response curves. The values for a four parameter logistic curve fit of the data were determined.

[2] = test system: O-GlcNAcylated protein in rat PC-12 cells; test: Cell-based ELISA for cellular activity of O-GlcNAcase inhibitors (RL-2 antibody); details: 24 h treatment, increase in O-GlcNAcylated protein detected with RL-2 antibody
Text: Inhibition of O-GlcNAcase, which removes O-GlcNAc from cellular proteins, results in an increase in the level of O-GlcNAcylated protein in cells. An increase in O-GlcNAcylated protein can be measured by an antibody, such as RL-2, that binds to O-GlcNAcylated protein. The amount of O-GleNAcylated protein:RL2 antibody interaction can be measured by enzyme linked immunosorbant assay (ELISA) procedures.
A variety of tissue culture cell lines, expressing endogenous levels of O-GlcNAcase, can be utilized; examples include rat PC-12, and human U-87, or SK-N-SH cells. In this assay,rat PC-12 cells were plated in 96-well plates with approximately 10,000 cells/well. Compounds to be tested were dissolved in DMSO, either 2 or 10 mM stock solution, and then diluted with DMSO and water in a two-step process using a Tecan workstation. […] To prepare a cell lysate, the media from compound treated cells was removed, the cells were washed once with phosphate buffered saline (PBS) and then lysed for 5 minutes at room temperature in 50 μL of Phosphosafe reagent (Novagen Inc, Madison, Wis.) with protease inhibitors and PMSF. The cell lysate was collected and transferred to a new plate, which was then either coated to assay plates directly or frozen −80° C. until used in the ELISA procedure. If desired, the total protein concentration of samples was determined using 20 μL of the sample using the BCA method.
The ELISA portion of the assay was performed in a black Maxisorp 96-well plate that was coated overnight at 4° C. with 100 μL/well of the cell lysate (1:10 dilution of the lysate with PBS containing protease inhibitors, phosphatase inhibitors, and PMSF). The following day the wells were washed 3 times with 300 μL/well of Wash buffer (Tris-buffered saline with 0.1% Tween 20). The wells were blocked with 100 μl/well Blocking buffer (Tris buffered saline w/0.05% Tween 20 and 2.5% Bovine serum albumin). Each well was then washed two times with 300 μL/well of wash buffer. […] The plate was sealed and incubated at 37° C. for 2 h with gentle shaking. The wells were then washed 3-times with 300 μL/well wash buffer. […] The plate was incubated for 60 min at 37° C. with gentle shaking. Each well was then washed 3-times with 300 μL/well wash buffer. The detection reagent was added, 100 μL/well of Amplex Ultra RED reagent (prepared by adding 30 μL of 10 mM Amplex Ultra Red stock solution to 10 mL PBS with 18 μL 3% hydrogen peroxide, H2O2). The detection reaction was incubated for 15 minutes at room temperature and then read with excitation at 530 nm and emission at 590 nm.
The amount of O-GlcNAcylated protein, as detected by the ELISA assay, was plotted for each concentration of test compound using standard curve fitting algorithms for sigmoidal dose response curves. The values for a four parameter logistic curve fit of the data were determined, with the inflection point of the curve being the potency value for the test compound.

Sequence of human O-GlcNAcase (O60502 whole entry): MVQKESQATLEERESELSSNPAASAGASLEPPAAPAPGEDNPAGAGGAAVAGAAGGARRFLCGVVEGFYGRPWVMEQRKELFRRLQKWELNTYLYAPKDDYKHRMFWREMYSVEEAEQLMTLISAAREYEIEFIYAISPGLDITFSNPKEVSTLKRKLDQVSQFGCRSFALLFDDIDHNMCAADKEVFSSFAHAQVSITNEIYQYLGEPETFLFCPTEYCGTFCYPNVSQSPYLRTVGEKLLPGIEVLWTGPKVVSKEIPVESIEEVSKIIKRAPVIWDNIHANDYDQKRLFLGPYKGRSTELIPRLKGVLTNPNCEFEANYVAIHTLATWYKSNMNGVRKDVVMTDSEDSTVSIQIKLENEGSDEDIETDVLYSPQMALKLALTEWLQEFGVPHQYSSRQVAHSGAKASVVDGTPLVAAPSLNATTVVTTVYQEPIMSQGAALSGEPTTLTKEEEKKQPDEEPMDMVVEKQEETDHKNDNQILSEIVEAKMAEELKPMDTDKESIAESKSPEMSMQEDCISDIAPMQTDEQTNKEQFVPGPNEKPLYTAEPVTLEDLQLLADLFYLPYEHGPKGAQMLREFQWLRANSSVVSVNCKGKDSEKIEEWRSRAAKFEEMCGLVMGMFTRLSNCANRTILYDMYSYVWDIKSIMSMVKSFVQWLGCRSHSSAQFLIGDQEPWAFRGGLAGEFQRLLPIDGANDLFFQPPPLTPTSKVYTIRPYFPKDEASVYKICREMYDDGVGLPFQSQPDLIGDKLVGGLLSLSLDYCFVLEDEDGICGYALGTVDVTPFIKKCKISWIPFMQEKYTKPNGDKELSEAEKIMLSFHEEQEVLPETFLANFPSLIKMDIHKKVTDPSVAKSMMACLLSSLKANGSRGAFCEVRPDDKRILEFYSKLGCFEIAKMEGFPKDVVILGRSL

Structure (SMILES)	Papp at 3 h, 1 μM [1] [×10⁻⁶ cm/s]	Ki (human O-GlcNAcase) [µM]	EC50 [2] [µM]
CNC1=N[C@@H]2C[C@H](O)[C@@H](C(F)F)O[C@@H]2S1 [Example 27, (3aR,5S,6S,7aR)-5-(difluoromethyl)-2-(methylamino)-5,6,7,7a-tetrahydro-3aH-pyrano[3,2-d]thiazol-6-ol]	24	0.028	–
CNC1=N[C@@H]2[C@@H](O)[C@H](O)[C@@H](CF)O[C@@H]2S1 [Example 17, (3aR,5S,6S,7R,7aR)-5-(fluoromethyl)-2-(methylamino)-5,6,7,7a-tetrahydro-3aH-pyrano[3,2-d]thiazole-6,7-diol]	7.1	0.0005	0.034
CNC1=N[C@@H]2[C@H](F)[C@H](O)[C@@H](C(F)F)O[C@@H]2S1 [Example 33, (3aR,5S,6R,7S,7aR)-5-(difluoromethyl)-7-fluoro-2-(methylamino)-5,6,7,7a-tetrahydro-3aH-pyrano[3,2-d]thiazol-6-ol]	20.1	0.013	–
CCNC1=N[C@@H]2C[C@H](O)[C@@H](CO)O[C@@H]2S1 [Example 2, (3aR,5R,6S,7aR)-2-(ethylamino)-5-(hydroxymethyl)-5,6,7,7a-tetrahydro-3aH-pyrano[3,2-d]thiazol-6-ol]	3.8	–	–
CCNC1=N[C@@H]2[C@@H](O)[C@H](O)[C@@H](CO)O[C@@H]2S1 [(3aR,5R,6S,7R,7aR)-2-(ethylamino)-5-(hydroxymethyl)-5,6,7,7a-tetrahydro-3aH-pyrano[3,2-d]thiazole-6,7-diol, reference compound]	< 1	–	–
CN(C)C1=N[C@@H]2[C@@H](O)[C@H](O)[C@@H](C(F)F)O[C@@H]2S1 [Example 20, (3aR,5S,6S,7R,7aR)-5-(difluoromethyl)-2-(dimethylamino)-5,6,7,7a-tetrahydro-3aH-pyrano[3,2-d]thiazole-6,7-diol]	13.7	0.0014	0.006
CCNC1=N[C@@H]2[C@@H](O)[C@H](O)[C@@H](C)O[C@@H]2S1 [Example 1, (3aR,5R,6S,7R,7aR)-2-(ethylamino)-5-methyl-5,6,7,7a-tetrahydro-3aH-pyrano[3,2-d]thiazole-6,7-diol]	–	0.07	–
CCNC1=N[C@@H]2[C@@H](O)[C@H](O)[C@@H](C(F)F)O[C@@H]2S1 [Example 19, (3aR,5S,6S,7R,7aR)-5-(difluoromethyl)-2-(ethylamino)-5,6,7,7a-tetrahydro-3aH-pyrano[3,2-d]thiazole-6,7-diol]	6	0.0057	0.053
CCNC1=N[C@@H]2[C@@H](O)[C@@H](O)[C@@H](C(F)F)O[C@@H]2S1 [Example 29, (3aR,5S,6R,7R,7aR)-5-(difluoromethyl)-2-(ethylamino)-5,6,7,7a-tetrahydro-3aH-pyrano[3,2-d]thiazole-6,7-diol]	–	0.164	–
CN(C)C1=N[C@@H]2[C@@H](O)[C@H](O)[C@@H](CO)O[C@@H]2S1 [(3aR,5R,6S,7R,7aR)-2-(dimethylamino)-5-(hydroxymethyl)-5,6,7,7a-tetrahydro-3aH-pyrano[3,2-d]thiazole-6,7-diol, reference compound]	< 1	0.0003	0.01
CNC1=N[C@@H]2[C@@H](F)[C@H](O)[C@@H](CO)O[C@@H]2S1 [Example 9, (3aR,5R,6R,7R,7aR)-7-fluoro-5-(hydroxymethyl)-2-(methylamino)-5,6,7,7a-tetrahydro-3aH-pyrano[3,2-d]thiazol-6-ol]	–	0.0013	0.307
